Test results as given in DBAASP.
≈ marks a conversion by molar mass, not a printed value.

Assays:
Assay in all cases: ≥ marks a high value that may be exact or a test limit, other limits are often not marked, values filed in µg/mL are converted to µM
[1] = system: Bacillus subtilis KCTC 3068
[2] = system: Escherichia coli KCTC 1682
[3] = system: Pseudomonas aeruginosa KCTC 1637
[4] = system: Salmonella typhimurium KCTC 1926
[5] = system: Staphylococcus aureus KCTC 1621
[6] = system: Staphylococcus epidermidis KCTC 1917
[7] = system: Escherichia coli ATCC 25726
[8] = system: Staphylococcus aureus ATCC 25923
Bacillus subtilis = system: Bacillus subtilis
[9] = system: Escherichia coli ATCC 8739
Pseudomonas aeruginosa = system: Pseudomonas aeruginosa
[10] = system: Staphylococcus epidermidis
[11] = system: Staphylococcus aureus ATCC 43300
[12] = system: Staphylococcus aureus ATCC 6538
[13] = system: Escherichia coli ATCC 25922
Klebsiella pneumoniae = system: Klebsiella pneumoniae
[14] = system: Pseudomonas aeruginosa ATCC 27853

**Q.** How did the MIC [1] turn out when `CC(C)C[C@H](NC(=O)[C@H](Cc1c[nH]c2ccccc12)NC(=O)[C@H](CCCN=C(N)N)NC(=O)[C@H](CCCCN)NC(=O)[C@H](Cc1c[nH]c2ccccc12)NC(=O)[C@H](CCCN=C(N)N)NC(=O)[C@H](CCC(N)=O)NC(=O)[C@@H](NC(=O)[C@H](Cc1c[nH]c2ccccc12)NC(=O)[C@H](CCCN=C(N)N)NC(=O)[C@H](CCCCN)NC(=O)[C@@H](N)Cc1c[nH]c2ccccc12)C(C)C)C(=O)N[C@@H](CCCN=C(N)N)C(N)=O` [WKRWVQRWKRWLR] was run?
**A.** Its MIC is 8 µM (≈ 15.9 µg/mL).

**Q.** What about the MIC [2] of the same compound?
**A.** The MIC was 4 µM (≈ 7.93 µg/mL).

**Q.** What about the MIC [3] of the same compound?
**A.** Its MIC is 16 µM (≈ 31.7 µg/mL).

**Q.** And the MIC [4]?
**A.** The MIC was 2 µM (≈ 3.97 µg/mL).

**Q.** And the MIC [5]?
**A.** The MIC was 2 µM (≈ 3.97 µg/mL).

**Q.** What about the MIC [6] of the same compound?
**A.** The MIC was 4 µM (≈ 7.93 µg/mL).

**Q.** Which results are given for `CC[C@H](C)[C@H](NC(=O)[C@H](CCCCN)NC(=O)[C@H](Cc1c[nH]c2ccccc12)NC(=O)[C@H](Cc1ccccc1)NC(=O)[C@H](CC(C)C)NC(=O)[C@H](CCCCN)NC(=O)[C@H](CCCCN)NC(=O)[C@@H](N)CCCCN)C(=O)N1CCC[C@H]1C(=O)N[C@@H](CCCCN)C(=O)N[C@@H](Cc1ccccc1)C(=O)N[C@@H](CC(C)C)C(=O)N[C@@H](Cc1cnc[nH]1)C(=O)N[C@@H](CC(C)C)C(=O)N[C@@H](C)C(=O)N[C@@H](CCCCN)C(=O)N[C@@H](CCCCN)C(=O)N[C@@H](Cc1ccccc1)C(N)=O` [KKKLFWKIPKFLHLAKKF]?
**A.** MIC [1]: 1 µM (≈ 2.3 µg/mL); MIC [2]: 2 µM (≈ 4.6 µg/mL); MIC [3]: 2 µM (≈ 4.6 µg/mL); MIC [4]: 1 µM (≈ 2.3 µg/mL); MIC [5]: 2 µM (≈ 4.6 µg/mL); MIC [6]: 1 µM (≈ 2.3 µg/mL)

**Q.** Which results are given for `CC[C@H](C)[C@H](NC(=O)[C@H](C)NC(=O)[C@@H](NC(=O)[C@H](C)NC(=O)CNC(=O)[C@H](CCCCN)NC(=O)[C@@H](NC(=O)[C@H](C)NC(=O)CNC(=O)[C@H](CCCCN)NC(=O)[C@H](CC(C)C)NC(=O)[C@@H](NC(=O)[C@H](CCCCN)NC(=O)[C@H](CCCCN)NC(=O)[C@H](CC(C)C)NC(=O)[C@@H](NC(=O)[C@H](CC(=O)O)NC(=O)[C@H](CCCCN)NC(=O)[C@@H](NC(=O)[C@H](CCC(=O)O)NC(=O)[C@@H]1CCCN1C(=O)[C@H](CO)NC(=O)[C@H](CC(C)C)NC(=O)[C@H](CCCCN)NC(=O)[C@@H](N)CC(C)C)[C@@H](C)O)[C@@H](C)O)C(C)C)[C@@H](C)CC)[C@@H](C)CC)C(=O)N[C@@H](C)C(=O)N[C@@H](CO)C(=O)N[C@@H](CC(C)C)C(=O)N[C@@H](C)C(N)=O` [LKLSPETKDTLKKVLKGAIKGAIAIASLA]?
**A.** MIC [7]: ≥ 40 µM; MIC [8]: 5 µM (≈ 14.9 µg/mL)

**Q.** For `CC(C)C[C@H](NC(=O)[C@H](Cc1ccc(O)cc1)NC(=O)[C@H](Cc1cnc[nH]1)NC(=O)[C@@H](NC(=O)[C@H](CC(C)C)NC(=O)[C@H](C)NC(=O)[C@H](C)NC(=O)[C@H](CCCCN)NC(=O)CNC(=O)[C@@H](NC(=O)[C@H](Cc1cnc[nH]1)NC(=O)[C@H](CCCCN)NC(=O)[C@H](C)NC(=O)[C@@H](NC(=O)[C@H](Cc1cnc[nH]1)NC(=O)[C@H](C)NC(=O)[C@H](C)NC(=O)[C@H](CCCCN)NC(=O)[C@H](CCCCN)NC(=O)[C@H](Cc1ccccc1)NC(=O)[C@H](Cc1ccccc1)NC(=O)[C@H](CO)NC(=O)CNC(=O)[C@H](Cc1c[nH]c2ccccc12)NC(=O)CN)C(C)C)C(C)C)[C@@H](C)O)C(=O)O` [GWGSFFKKAAHVAKHVGKAALTHYL], which MIC [1] is on record?
**A.** Its MIC is 4 µM (≈ 10.9 µg/mL).

**Q.** And the MIC [2]?
**A.** Its MIC is 4 µM (≈ 10.9 µg/mL).

**Q.** And the MIC [3]?
**A.** Its MIC is 2 µM (≈ 5.45 µg/mL).

**Q.** And the MIC [4]?
**A.** The MIC was 2 µM (≈ 5.45 µg/mL).

**Q.** And the MIC [5]?
**A.** The MIC was 1 µM (≈ 2.73 µg/mL).

**Q.** What about the MIC [6] of the same compound?
**A.** The MIC was 1 µM (≈ 2.73 µg/mL).

**Q.** With `CC(C)C[C@H](NC(=O)[C@H](CCCCN)NC(=O)[C@H](Cc1c[nH]c2ccccc12)NC(=O)[C@H](C)N)C(=O)N[C@@H](Cc1ccccc1)C(=O)N[C@@H](CC(=O)O)C(=O)N[C@@H](CC(=O)O)C(=O)NCC(=O)N[C@H](C(=O)O)C(C)C` [AWKLFDDGV] as the compound, how does the MIC (Bacillus subtilis) read?
**A.** Its MIC is 30 µM (≈ 31.5 µg/mL).

**Q.** And the MIC [9]?
**A.** Its MIC is 30 µM (≈ 31.5 µg/mL).

**Q.** And the MIC (Pseudomonas aeruginosa)?
**A.** Its MIC is 30 µM (≈ 31.5 µg/mL).

**Q.** What about the MIC [10] of the same compound?
**A.** Its MIC is no less than 60 µM.

**Q.** How did the MIC [9] turn out when `CC[C@H](C)[C@H](NC(=O)[C@H](CCCCN)NC(=O)[C@@H](NC(=O)[C@H](CO)NC(=O)[C@H](CC(N)=O)NC(=O)[C@H](Cc1c[nH]c2ccccc12)NC(=O)[C@H](CC(C)C)NC(=O)CN)[C@@H](C)CC)C(=O)N[C@@H](C)C(=O)NCC(=O)N[C@@H](CCCCN)C(=O)N[C@@H](CCCCN)C(=O)N[C@@H](CC(C)C)C(=O)N[C@@H](Cc1ccccc1)C(=O)N[C@H](C(=O)N[C@@H](CC(N)=O)C(=O)N[C@H](C(=O)N[C@@H](CC(C)C)C(=O)N[C@@H](CC(=O)O)C(=O)N[C@@H](CCCCN)C(=O)N[C@H](C(=O)N[C@@H](CCCN=C(N)N)C(=O)N[C@H]1CSSC[C@@H](C(=O)N[C@@H](CCCCN)C(=O)N[C@H](C(=O)N[C@@H](CO)C(=O)N2CCC[C@H]2C(=O)N[C@@H](CC(=O)O)C(=O)N[C@H](C(=O)N[C@@H](CCC(=O)O)C(=O)O)C(C)C)[C@@H](C)O)NC(=O)CNC(=O)CNC(=O)[C@H](C)NC(=O)[C@H](C(C)C)NC(=O)[C@H](CCCCN)NC1=O)[C@@H](C)CC)C(C)C)C(C)C` [GLWNSIKIAGKKLFVNVLDKIRCKVAGGCKTSPDVE] was run?
**A.** The MIC was 6.3 µM (≈ 24.5 µg/mL).

**Q.** What about the MIC [11] of the same compound?
**A.** The MIC was 100 µM (≈ 389 µg/mL).

**Q.** And the MIC [12]?
**A.** Its MIC is 6.3 µM (≈ 24.5 µg/mL).

**Q.** How did the MIC [9] turn out when `CC[C@H](C)[C@H](NC(=O)[C@H](CCCCN)NC(=O)[C@H](CO)NC(=O)[C@H](CO)NC(=O)[C@H](CC(C)C)NC(=O)[C@H](CCCCN)NC(=O)[C@H](CCCCN)NC(=O)[C@H](CC(C)C)NC(=O)[C@H](CC(C)C)NC(=O)[C@H](CCCCN)NC(=O)[C@H](CCC(N)=O)NC(=O)[C@H](Cc1ccc(O)cc1)NC(=O)[C@H](Cc1ccccc1)NC(=O)[C@H](CCC(N)=O)NC(=O)[C@H](CO)NC(=O)[C@H](CCC(=O)O)NC(=O)[C@H](CCCN=C(N)N)NC(=O)[C@H](CC(N)=O)NC(=O)[C@@H]1CCCN1)C(=O)O` [PNRESQFYQKLLKKLSSKI] was run?
**A.** The MIC was no less than 111 µM.

**Q.** And the MIC [8]?
**A.** The MIC was 111 µM (≈ 256 µg/mL).

**Q.** With `CC[C@H](C)[C@H](NC(=O)[C@H](CCCCN)NC(=O)[C@H](CC(C)C)NC(=O)CNC(=O)[C@H](CC(C)C)NC(=O)[C@H](CO)NC(=O)[C@H](CCCN=C(N)N)NC(=O)[C@H](CC(C)C)NC(=O)CNC(=O)CNC(C)=O)C(=O)N[C@@H](CC(C)C)C(=O)N[C@@H](CC(C)C)C(=O)N[C@@H](C)C(=O)N[C@@H](Cc1c[nH]c2ccccc12)C(=O)N[C@@H](CCCCN)C(=O)N[C@@H](CCCCN)C(=O)N[C@@H](Cc1ccc(O)cc1)C(=O)NCC(N)=O` [GGLRSLGLKILLAWKKYG] as the compound, how does the MIC [13] read?
**A.** Its MIC is greater than 100 µM.

**Q.** And the MIC [9]?
**A.** Its MIC is no less than 100 µM.

**Q.** And the MIC (Klebsiella pneumoniae)?
**A.** The MIC was greater than 100 µM.

**Q.** And the MIC [14]?
**A.** Its MIC is greater than 100 µM.

**Q.** How did the MIC [9] turn out when `CC[C@H](C)[C@H](NC(=O)[C@H](CCCCN)NC(=O)[C@H](CO)NC(=O)[C@H](C)NC(=O)[C@@H](NC(=O)[C@H](CCCN=C(N)N)NC(=O)[C@H](CC(=O)O)NC(=O)[C@H](CC(C)C)NC(=O)[C@H](CC(C)C)NC(=O)[C@H](CCCCN)NC(=O)[C@H](CC(C)C)NC(=O)[C@@H](NC(=O)[C@@H](NC(=O)[C@H](CC(N)=O)NC(=O)[C@H](CC(N)=O)NC(=O)[C@@H](NC(=O)[C@H](CCCCN)NC(=O)[C@H](CCCCN)NC(=O)[C@@H]1CCCN1)[C@@H](C)CC)[C@@H](C)O)[C@@H](C)CC)C(C)C)C(=O)O` [PKKINNTILKLLDRVASKI] was run?
**A.** Its MIC is 29.6 µM (≈ 64 µg/mL).

**Q.** How did the MIC [13] turn out when `CC[C@H](C)[C@H](NC(=O)[C@H](CCCCN)NC(=O)[C@H](CCCN=C(N)N)NC(=O)CNC(=O)[C@H](CC(C)C)NC(=O)[C@H](CCCN=C(N)N)NC(=O)[C@H](CCCN=C(N)N)NC(=O)[C@H](CC(C)C)NC(=O)CNC(=O)CNC(C)=O)C(=O)N[C@@H](CC(C)C)C(=O)N[C@@H](CCCN=C(N)N)C(=O)N[C@@H](C)C(=O)N[C@H](C(=O)N[C@@H](CCCCN)C(=O)N[C@@H](CCCCN)C(=O)N[C@@H](Cc1ccc(O)cc1)C(=O)NCC(N)=O)C(C)C` [GGLRRLGRKILRAVKKYG] was run?
**A.** Its MIC is 8.84 µM (≈ 18.4 µg/mL).

**Q.** What about the MIC [9] of the same compound?
**A.** Its MIC is 4.42 µM (≈ 9.2 µg/mL).

**Q.** What about the MIC (Klebsiella pneumoniae) of the same compound?
**A.** The MIC was 8.84 µM (≈ 18.4 µg/mL).

**Q.** And the MIC [14]?
**A.** Its MIC is 8.84 µM (≈ 18.4 µg/mL).
